# Laboratory results: ChEMBL document CHEMBL3045733, “3D-QSAR and molecular docking studies of hydroxamic acids as peptide deformylase inhibitors” (Med Chem Res, 2012)
# Assay: Inhibition of peptide deformylase using N-formylmethionine-alanine-serineas substrate incubated for 10 min before substrate addition by PDF-FDH coupled assay
row,Structure (SMILES),pIC50
1,CCCC[C@@H](C(=O)N1CCC[C@H]1C(=O)N1CCN(c2ccccc2F)CC1)[C@H](O)C(=O)NO,8.3
2,CCCC[C@@H](C(=O)N1CCC[C@H]1C(=O)N1CCN(c2ncccn2)CC1)[C@H](O)C(=O)NO,8.52
3,Cc1nc(NC(=O)[C@@H]2CCCN2C(=O)N(CCC2CCCC2)CC(=O)NO)sc1C,8.7
4,O=C(CN(CCC1CCCC1)C(=O)N1CCC[C@H]1C(=O)Nc1ccc2c(c1)OCO2)NO,8.1
5,O=C(CN(CCC1CCCC1)C(=O)N1CCC[C@H]1C(=O)Nc1cccc(O)c1)NO,7.77
6,O=C(CN(CCC1CCCC1)C(=O)N1CCC[C@H]1C(=O)Nc1cnccn1)NO,7.27
7,O=C(CN(CCC1CCCC1)C(=O)N1CCC[C@H]1C(=O)Nc1ncccn1)NO,7.68
8,O=C(CN(CCC1CCCC1)C(=O)N1CCC[C@H]1C(=O)Nc1nccc(-c2ccccc2)n1)NO,7.17
9,CC(C)CCN(CC(=O)NO)C(=O)N1CCC[C@H]1C(=O)Nc1nccs1,6.49
10,Cc1nc(NC(=O)[C@@H]2CCCN2C(=O)N(CCC(C)C)CC(=O)NO)sc1C,8.52
11,CC(C)CCN(CC(=O)NO)C(=O)N1CCC[C@H]1C(=O)Nc1ccc2c(c1)OCO2,7.96
12,Cc1nnc(NC(=O)[C@@H]2CCCN2C(=O)N(CCC(C)C)CC(=O)NO)s1,7.92
13,CCc1nnc(NC(=O)[C@@H]2CCCN2C(=O)N(CCC(C)C)CC(=O)NO)s1,7.74
14,CC(C)CCN(CC(=O)NO)C(=O)N1CCC[C@H]1C(=O)Nc1nnc(-c2ccccc2)s1,7.01
15,CNC(=O)[C@@H]1CCCN1C(=O)N(CCC(C)C)CC(=O)NO,7.21
16,CC(C)CCNC(=O)[C@@H]1CCCN1C(=O)N(CCC(C)C)CC(=O)NO,7.92
17,Cc1cnc(NC(=O)[C@@H]2CCCN2C(=O)N(CCC(C)C)CC(=O)NO)s1,7.2
18,CCCC[C@H](CC(=O)NO)C(=O)N1CCC[C@H]1C(=O)Nc1nc2ccccc2s1,8.52
19,CCCC[C@H](CC(=O)NO)C(=O)N1CCC[C@H]1C(=O)Nc1nc(-c2ccccc2)cs1,8.04
20,CCCC[C@@H](C(=O)N1CCC[C@H]1C(=O)Nc1ccc(Cl)c(Cl)c1)[C@H](F)C(=O)NO,9
21,CCCC[C@@H](C(=O)N1CCC[C@H]1C(=O)N1CCCCC1)[C@H](F)C(=O)NO,7.66
22,CCCC[C@@H](C(=O)N1CCC[C@H]1C(=O)N1CCOCC1)[C@H](F)C(=O)NO,7.89
23,CCCC[C@@H](C(=O)N1CCC[C@H]1C(=O)N1CCN(c2ccccc2F)CC1)[C@H](F)C(=O)NO,8.22
24,CCCC[C@@H](C(=O)N1CCC[C@H]1C(=O)N1CCN(c2ncccn2)CC1)[C@H](F)C(=O)NO,8.22

# The next lines start with the values.
row,pIC50,Structure (SMILES)
1,7.62,CCCC[C@@H](C(=O)N1CCC[C@H]1C(=O)N1CCCC1)[C@H](O)C(=O)NO
2,7.89,CCCC[C@@H](C(=O)N1CCC[C@H]1C(=O)N1CCCCC1)[C@H](O)C(=O)NO
3,8.17,CCCC[C@@H](C(=O)N1CC[C@H]1C(=O)NCCC)[C@H](O)C(=O)NO
4,8.17,CCCC[C@@H](C(=O)N1CCCC[C@H]1C(=O)NCCC)[C@H](O)C(=O)NO
5,7.57,CCCC[C@@H](C(=O)N1CCC[C@H]1C(=O)NC)[C@@H](F)C(=O)NO
6,8,CCCC[C@H](CC(=O)NO)C(=O)N1CCC[C@H]1C(=O)NC
7,8.22,CCCC[C@@H](C(=O)N1CCC[C@H]1C(=O)OC(C)(C)C)[C@@H](O)C(=O)NO
8,7.3,CCCC[C@@H](C(=O)N1CCC[C@H]1C(=O)OC(C)(C)C)[C@@H](OC)C(=O)NO
9,7.52,CCCC[C@@H](C(=O)N1CCC[C@H]1C(=O)OC(C)(C)C)[C@H](OS(=O)(=O)O)C(=O)NO
10,7.89,CCCC[C@@H](C(=O)N1CCC[C@H]1C(=O)NCCC)[C@H](F)C(=O)NO
11,7.8,CCCCNC(=O)[C@@H]1CCCN1C(=O)[C@H](CCCC)[C@H](F)C(=O)NO
12,7.89,CCCCCNC(=O)[C@@H]1CCCN1C(=O)[C@H](CCCC)[C@H](F)C(=O)NO
13,7.8,C=CCNC(=O)[C@@H]1CCCN1C(=O)[C@H](CCCC)[C@@H](F)C(=O)NO
14,8.15,CCCC[C@@H](C(=O)N1CCC[C@H]1C(=O)NCC(O)CC)[C@H](F)C(=O)NO (some centres undefined)
15,8.04,CCCC[C@@H](C(=O)N1CCC[C@H]1C(=O)NC1CCCCC1)[C@H](F)C(=O)NO
16,8.7,CCCC[C@@H](C(=O)N1CCC[C@H]1C(=O)Nc1nc(C)c(C)s1)[C@H](F)C(=O)NO
17,8.7,CCCC[C@@H](C(=O)N1CCC[C@H]1C(=O)Nc1nc(C)c(C)s1)[C@@H](F)C(=O)NO
18,7.54,CCCC[C@@H](C(=O)N1CCC[C@H]1C(=O)N1CCC1)[C@H](F)C(=O)NO
19,8,CCCC[C@@H](C(=O)N1CCC[C@H]1C(=O)NC)[C@H](O)C(=O)NO
20,8.1,CCCC[C@@H](C(=O)N1CCC[C@H]1C(=O)NCCC)[C@H](O)C(=O)NO
21,8.1,CCCCCNC(=O)[C@@H]1CCCN1C(=O)[C@H](CCCC)[C@H](O)C(=O)NO
22,8.15,CCCC[C@@H](C(=O)N1CCC[C@H]1C(=O)NC(C)C)[C@H](O)C(=O)NO
23,8.1,CCCC[C@@H](C(=O)N1CCC[C@H]1C(=O)NC(C)(C)CC)[C@H](O)C(=O)NO
24,8.52,CCCC[C@@H](C(=O)N1CCC[C@H]1C(=O)NC1CCCCC1)[C@H](O)C(=O)NO
25,7.77,CCCC[C@@H](C(=O)N1CCC[C@H]1C(=O)N1CCC1)[C@H](O)C(=O)NO
